Where two headings read alike, the source gives them in different places.
Assays:
[1] = tested on: 468 kinases; details: concentration of 100 nM; cited from earlier work
[2] = tested on: 468 kinases; type: binding; details: concentration of 100 nM

SMILES	number of wild-type kinases inhibited (percent control <35%) [1]	number of wild-type kinases inhibited (percent control <35%) [2]
Cc1cnc(Nc2ccc(OCCN3CCCC3)cc2)nc1Nc1cccc(S(=O)(=O)NC(C)(C)C)c1 [Fedratinib]	34	
C1=C/COCc2cc(ccc2OCCN2CCCC2)Nc2nccc(n2)-c2cccc(c2)COC/1 [Pacritinib]		55

Source: article PMC12504684 (Communications Chemistry, 2025)
